Measurements: patent publication US7919484B2, “Combination therapy” (Xenon Pharmaceuticals Inc., priority 2005, dated 2011)

Legend:
[1] = cited from earlier work
SCD = target: T1, SCD (Homo sapiens, UniProt O00767); settings: known from the art; cited from earlier work
T1 sequence (O00767 1-359): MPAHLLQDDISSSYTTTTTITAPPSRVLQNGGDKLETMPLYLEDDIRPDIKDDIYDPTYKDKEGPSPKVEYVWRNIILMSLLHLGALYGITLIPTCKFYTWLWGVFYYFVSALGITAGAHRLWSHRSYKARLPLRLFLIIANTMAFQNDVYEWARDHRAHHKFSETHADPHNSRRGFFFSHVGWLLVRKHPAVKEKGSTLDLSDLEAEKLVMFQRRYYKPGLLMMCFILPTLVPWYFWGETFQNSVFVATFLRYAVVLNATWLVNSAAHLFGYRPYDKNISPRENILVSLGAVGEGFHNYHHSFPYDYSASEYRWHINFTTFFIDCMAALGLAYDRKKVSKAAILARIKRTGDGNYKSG

[2] = Effect of SCD-1 inhibitor and rosiglitazone co-administration on body weight in ZDF rats (Example 1); type: in vivo, Male Zucker Diabetic Fatty Rats (ZDF); settings: mean +/- SEM, Rosi 10 mg/kg, XEN103 5 mg/kg daily po; for Final Body Weight: end of treatment
Method: Male Zucker Diabetic Fatty Rats (ZDF) began treatment at the age of 7 weeks of age. Animals were housed three to a cage in a temperature, humidity and light controlled room. The animals were fed a standard rodent diet and had free access to water. Animals were randomized into groups of 9 and placed in the following experimental groups for daily dosing (10:30 am) as described in table 5 below. Animals were weighed three times per week. Food intake was recorded three times per week. XEN 1 is a representative SCD-1 inhibitor compound of the invention. The formulations were: • Vehicle=1% CMC:0.1% Tween 20:10% PG • Rosi-10=rosiglitazone 10 mg/kg in 1% CMC:0.1% Tween 20:10% PG • Rosi-10+XEN1=rosiglitazone 10 mg/kg+XEN1 5 mg/kg in 1% CMC:0.1% Tween 20:10% PG • XEN1=XEN1 5 mg/kg in 1% CMC:0.1% Tween 20:10% PG

SCD enzyme = target: T2, SCD enzyme (Rattus norvegicus, UniProt P07308); experiment: Plasma desaturation index (DI) in ZDF rats after treatment (Example 2); type: in vivo; settings: plasma triglycerides, mean +/- standard deviation, rosiglitazone 10 mg/kg, XEN1 5 mg/kg
T2 construct: indicator of endogenous SCD1 activity; from tissue; host or cells: living male Zucker Diabetic Fatty rats, dosed orally
T2 sequence (P07308 1-358): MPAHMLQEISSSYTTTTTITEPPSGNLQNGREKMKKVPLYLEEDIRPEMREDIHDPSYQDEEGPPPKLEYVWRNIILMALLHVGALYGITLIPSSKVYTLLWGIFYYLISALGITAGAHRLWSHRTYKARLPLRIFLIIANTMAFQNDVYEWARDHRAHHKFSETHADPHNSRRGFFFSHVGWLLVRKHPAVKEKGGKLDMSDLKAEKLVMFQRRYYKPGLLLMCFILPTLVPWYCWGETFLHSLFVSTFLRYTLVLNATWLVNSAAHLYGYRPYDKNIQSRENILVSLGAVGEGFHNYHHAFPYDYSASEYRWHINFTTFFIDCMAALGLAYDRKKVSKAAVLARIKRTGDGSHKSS
Text: Another suitable method is to indirectly measure the SCD-1 inhibitors impact on inhibition of SCD enzyme by measuring a subject's desaturation index (‘DI’) after administration of the SCD-1 inhibitors. DI as employed in this specification means the ratio of the product over the substrate for the SCD enzyme as measured from a given tissue sample. This may be calculated using three different equations 18:1n−9/18:0 (oleic acid over stearic acid); 16:1n−7/16:0 (palmitoleic acid over palmitic acid); and/or 16:1n−7+18:1n−7/16:0 (measuring all reaction products of 16:0 desaturation over 16:0 substrate). DI is primarily measured in liver or plasma triglycerides, but may also be measured in other selected lipid fractions from a variety of tissues.
Desaturation indexes were calculated from the fatty acid profile of circulating plasma triglycerides. […] An additional 0.5 mL of chloroform containing 0.05 mg/mL of glyceryl-triheptadecanoin as an internal standard were also added. Samples were thoroughly vortexed and the phases separated by centrifugation at 2000 rpm for 8 minutes. […]
3 desaturation indexes were calculated from the chromatograms based on absolute peak areas; the ratio of palmitoleic acid to palmitic acid (C16:1n7/C16:0), the ratio of oleic acid to stearic acid (C18:1n9/C18:0) and the ratio of palmitoleic acid and vaccenic acid to palmitic acid (C16:1n7+C18:1n7/C16:0).

| Compound | Inhibition of SCD activity (in words) (SCD) | Final Body Weight [2] [g] | Body Weight Gain - 5 week treatment [2] [g] | further results |
| --- | --- | --- | --- | --- |
| N[C@@H]1C[C@H]1c1ccccc1 (racemic) [Tranylcypromine] | – | – | – | Side Effect (in words) ([1]; human, in vivo): Adverse weight |
| CCCCCCCCC1=C(CCCCCCCC(=O)O)C1 [Sterculic acid, 8-(2-octylcyclopropenyl)octanoic acid] | non-specifically inhibit SCD activity | – | – | – |
| O=C(NCCC1CC1)c1ccc(N2CCN(C(=O)c3cc(F)ccc3C(F)(F)F)CC2)nn1 [XEN 1] | – | 312.2 ± 5.1 | 150.7 ± 3.5 | Plasma desaturation index (DI) C16:1n7/C16:0 (SCD enzyme): 0.043 +/− 0.004; Plasma desaturation index (DI) C18:1n9/C18:0 (SCD enzyme): 5.874 +/− 0.422 |
| CCCCCCCCC1=C(CCCCCCC(=O)O)C1 [malvalic acid, 7-(2-octylcyclopropenyl)heptanoic acid] | non-specifically inhibit SCD activity | – | – | – |
| CC(=O)O[C@]1(C(C)=O)CC[C@H]2[C@@H]3C[C@H](C)C4=CC(=O)CC[C@]4(C)[C@H]3CC[C@@]21C [medroxyprogesterone acetate] | – | – | – | Side Effect: increase in body weight ([1]; 6 months): 6.2% increase in |
| CN(CCOc1ccc(CC2SC(=O)NC2=O)cc1)c1ccccn1 (centres unmarked) [rosiglitazone] | – | 485.3 ± 7.3 | 321.9 ± 6.5 | Weight gain associated with low-dose treatment ([1]; 4 mg/day, after one year treatment): about 8 kg/year |
